Measurements reported in ChEMBL document CHEMBL4819064, “Discovery of new pyrimidopyrrolizine/indolizine-based derivatives as P-glycoprotein inhibitors: Design, synthesis, cytotoxicity, and MDR reversal activities” (Eur J Med Chem, 2021).

Tests used:
MCF7 [1] = assay: Induction of apoptosis in human MCF7 cells assessed as early apoptotic cells at 0.250 uM after 72 hrs by Annexin V-FITC/propidium iodide staining-based flow cytometric analysis (reference value: 4.6 %); type: functional; settings: dose 0.25 µM
MCF7 [2] = assay: Induction of apoptosis in human MCF7 cells assessed as viable cells at 0.125 uM after 72 hrs by Annexin V-FITC/propidium iodide staining-based flow cytometric analysis (reference value: 86.4 %); type: functional; settings: read-out: Activity
MCF7 [3] = assay: Cell cycle arrest in human MCF7 cells assessed as accumulation at pre-G1 phase at 0.125 uM incubated for 72 hrs by PI staining based flow cytometric analysis (reference value: 1.6 +/- 0.2 %); type: functional
MCF7 [4] = assay: Cell cycle arrest in human MCF7 cells assessed as accumulation at G1 phase at 0.125 uM incubated for 72 hrs by PI staining based flow cytometric analysis (reference value: 56.9 +/- 5.6 %); type: functional
MCF7 [5] = assay: Induction of apoptosis in human MCF7 cells assessed as necrotic cells at 0.250 uM after 72 hrs by Annexin V-FITC/propidium iodide staining-based flow cytometric analysis (reference value: 6.2 %); type: functional; settings: dose 0.25 µM
NCI/ADR-RES [6] = assay: Synergistic cytotoxicity against human MCF7/ADR cells assessed as combination index at 1 uM after 72 hrs in presence of 0.25 uM doxorubicin by MTT assay; type: functional
NCI/ADR-RES [7] = assay: Synergistic cytotoxicity against human MCF7/ADR cells assessed as combination index at 0.25 uM after 72 hrs in presence of 0.25 uM doxorubicin by MTT assay; type: functional
HT-29 = assay: Cytotoxicity against human HT29 cells assessed as reduction in cell viability incubated for 72 hrs by MTT assay; settings: HT-29, 72 h
NCI/ADR-RES [8] = assay: Synergistic cytotoxicity against human MCF7/ADR cells assessed as combination index at 0.25 uM after 72 hrs in presence of 1 uM doxorubicin by MTT assay; type: functional
MCF7 [9] = assay: Cell cycle arrest in human MCF7 cells assessed as accumulation at pre-G1 phase at 0.5 uM incubated for 72 hrs by PI staining based flow cytometric analysis (reference value: 1.6 +/- 0.2 %); type: functional
MRC5 = assay: Cytotoxicity against human MRC5 cells assessed as reduction in cell viability incubated for 72 hrs by MTT assay; settings: MRC5, 72 h
[10] = molecular target: ATP-dependent translocase ABCB1 (Homo sapiens, UniProt P08183); assay: Inhibition of P-gp activity in human MCF7/ADR cells at 1000 nM after 72 hrs by RT-PCR analysis relative to control; type: cell-based, NCI/ADR-RES; settings: nci/adr-res, 72 h, 1 µM
[11] = Selectivity index, ratio of IC50 for human MRC5 cells to IC50 for human A2780 cells; type: toxicity; settings: MRC5 cells versus A2780 cells, read-out: Ratio IC50
NCI/ADR-RES [12] = assay: Synergistic cytotoxicity against human MCF7/ADR cells assessed as combination index at 0.5 uM after 72 hrs in presence of 1 uM doxorubicin by MTT assay; type: functional

Sequence of ATP-dependent translocase ABCB1 (P08183 whole entry): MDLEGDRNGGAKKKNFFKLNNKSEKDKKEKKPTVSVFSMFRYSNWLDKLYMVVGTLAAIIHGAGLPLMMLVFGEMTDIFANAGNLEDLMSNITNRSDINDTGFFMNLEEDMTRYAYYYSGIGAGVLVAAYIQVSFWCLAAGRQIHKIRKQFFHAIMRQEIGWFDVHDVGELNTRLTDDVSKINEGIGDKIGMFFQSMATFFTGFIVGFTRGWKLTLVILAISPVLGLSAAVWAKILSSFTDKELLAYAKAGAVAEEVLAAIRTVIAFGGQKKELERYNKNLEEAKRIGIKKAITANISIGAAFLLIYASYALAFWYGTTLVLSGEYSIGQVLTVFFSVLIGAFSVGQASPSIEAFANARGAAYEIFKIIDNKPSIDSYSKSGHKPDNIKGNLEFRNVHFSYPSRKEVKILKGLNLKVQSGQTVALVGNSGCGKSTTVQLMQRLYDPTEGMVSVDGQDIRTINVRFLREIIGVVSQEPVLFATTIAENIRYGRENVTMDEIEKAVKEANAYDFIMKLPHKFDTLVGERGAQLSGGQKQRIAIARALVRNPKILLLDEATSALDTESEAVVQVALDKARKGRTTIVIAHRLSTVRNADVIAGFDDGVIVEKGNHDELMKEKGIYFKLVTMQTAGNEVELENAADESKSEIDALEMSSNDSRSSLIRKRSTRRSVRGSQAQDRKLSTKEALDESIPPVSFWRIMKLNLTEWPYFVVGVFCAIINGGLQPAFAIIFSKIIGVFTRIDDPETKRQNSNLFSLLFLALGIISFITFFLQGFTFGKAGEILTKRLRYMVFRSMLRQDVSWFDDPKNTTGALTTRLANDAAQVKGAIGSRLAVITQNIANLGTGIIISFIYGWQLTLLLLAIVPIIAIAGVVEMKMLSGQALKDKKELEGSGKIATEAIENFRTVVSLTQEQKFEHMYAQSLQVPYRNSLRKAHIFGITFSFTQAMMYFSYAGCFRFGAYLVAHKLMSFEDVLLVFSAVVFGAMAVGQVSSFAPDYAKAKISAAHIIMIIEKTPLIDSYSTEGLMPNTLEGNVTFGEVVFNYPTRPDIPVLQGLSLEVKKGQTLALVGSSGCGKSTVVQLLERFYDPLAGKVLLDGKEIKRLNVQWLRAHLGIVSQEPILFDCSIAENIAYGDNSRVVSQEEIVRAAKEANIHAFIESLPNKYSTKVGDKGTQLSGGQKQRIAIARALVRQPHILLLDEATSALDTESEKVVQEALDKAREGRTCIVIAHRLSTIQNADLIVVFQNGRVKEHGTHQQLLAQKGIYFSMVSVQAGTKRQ

inhibition (INH) [10]: 220%
Structure (SMILES): N#Cc1c2n(c3c(=O)n(-c4ccccc4)cnc13)CCCC2
Activity (MCF7 [1]): 7.5%
viability at 0.125 µM (MCF7 [2]): 86.3%
Activity (MCF7 [3]): 1.6%
Activity (MCF7 [4]): 61%
Activity (MCF7 [5]): 10.7%
CI (NCI/ADR-RES [6]): 0.211
CI (NCI/ADR-RES [7]): 0.927
IC50 (HT-29): 1070 nM
CI (NCI/ADR-RES [8]): 0.433
Activity (MCF7 [9]): 1.6%
IC50 (MRC5): 1450 nM
selectivity ratio [11]: 24.2
CI (NCI/ADR-RES [12]): 1.552
